Assay results as given in paper PMC9104356, “Characterisation of a Novel Acetyl Xylan Esterase (BaAXE) Screened from the Gut Microbiota of the Common Black Slug (Arion ater)” (Molecules, 2022).

Test system: T1, BaAXE (Gene_id_40363)
T1 construct: full-length 654 bp PCR product (about 218 residues), pDEST42, C-terminal 6xHis, E. coli BL21(DE3), 27 kDa by SDS-PAGE; forward primer CACCATGAAACATGACCAC encodes N-terminus MKHDH
Assay: spectrophotometric 4-nitrophenol release at […] nm, nonlinear Michaelis-Menten fit
Format: biochemical
Settings: pH 8, 0.1-2 mM substrate; temperature not told for kinetics (standard assay 40 °C, 50 mM sodium phosphate, 150 mM NaCl, 0.01% Triton X-100)

Km: 430 µM
Compound: CC(=O)Oc1ccc([N+](=O)[O-])cc1 [4-NPA, 4-nitrophenyl acetate]
